Source: patent US5616618A, “Threo-3-(3,4-dihydroxyphenyl)serine analgesic composition” (priority 1993, dated 1997)
“Also recorded” adds a separate entry of the source.

How the values were obtained:
[1] = test system: mice; test: Tail flick test, subcutaneous L-threo-DOPS; type: in vivo
Procedure: Thermal stimulation at a certain level was given onto mice at the tail, and the latency until the animal flicked the tail out of the thermal stimulation was measured. The analgesic effect was judged in terms of prolonged latency by administration of a drug (tail-flick test, see European Journal of Pharmacology, 212, 1992).
The test was conducted by using a tail flick analgesia meter (MK-330, Muromachi Kikai). The intensity of the beam was adjusted to produce a control latency of 2 to 2.5 seconds, and a cut-off time was set to be 8 seconds. The experimental data obtained were shown in terms of latency (second).
L-Threo-DOPS was suspended in a 0.2% Tween 80 solution and the resulting suspension was subcutaneously administered in a dose of 100 to 400 mg/kg. The tail flick latency was then measured with passage of time to determine antinociceptive action, namely, analgesic activity.
In the left graph, the symbol .largecircle. denotes the group administered with vehicle only (n=8), and the symbol .circle-solid. denotes the group administered with L-threo-DOPS (n=5). […] In the right graph, the symbol V denotes the group administered with vehicle only. *P<0.05, **P<0.01 (when compared to the group administered with vehicle only).
(§1) The results obtained in the respective tests are all shown by means ±standard error. Statistically significant difference between the groups was determined by Student's t-test or Newman-Keuls test. When P<0.05, the difference was judged to be significant.

[2] = test system: mice; test: Kaolin-induced writhing test; type: in vivo
Text: (§2) Mice were used for the kaolin-induced writhing test and the formalin test, wherein animal model for assessment of chronic pain is used [Pain, 51, 195-198 (1992)].
b) Kaolin-Induced Writhing Test
The test was proposed by Fujiyoshi, T. et al. as a nociceptive test for the assessment of endogenous bradykinin-induced pain [Fujiyoshi et al., Agents and Actions, 27, 332 (1989)]. In the present invention, a method somewhat modified from the Fujiyoshi test was used for the assessment. That is, a suspension of 125 mg/kg of kaolin in 0.2% Tween 80 solution was intraperitoneally administered to mice in a dose of 0.25 ml/10 g. Immediately thereafter, the total number of writhing reactions which were observed during 20 minutes was counted.
Thirty minutes, 1 hour and 2 hours before administration of kaolin, L-threo-DOPS was subcutaneously administered in a dose ranging from 100 to 400 mg/kg.
In the left graph, the symbol .largecircle. denotes the group administered with vehicle only, and the symbol .circle-solid. denotes the group administered with L-threo-DOPS. […] The symbol V denotes the group administered with vehicle only (n=5). **P<0.01, ***P<0.001 (when compared to the group administered with vehicle only).
as §1

[3] = test system: mice; test: Formalin-induced nociceptive test; type: in vivo
Procedure: as §2
c) Formalin-Induced Nociceptive Test
Formalin (0.5%, 25 μl) was administered subcutaneously into a mouse at the sole of the right hind paw. Immediately thereafter, the time required for the mouse to conduct licking or biting behavior was counted for 30 minutes at intervals of 5 minutes. The results are shown separately for Phase I (0-5 minutes after the formalin administration) and Phase II (10-30 minutes after the formalin administration). […]
The symbol V denotes the group administered with vehicle only. *P<0.05 (as compared to the group administered with vehicle only).
as §1

[4] = test system: mice; test: Effect of naloxone on L-threo-DOPS antinociception, tail flick test; type: in vivo; conditions: for type of analgesic activity: from naloxone tests (tail flick and kaolin)
Procedure: (§3) Antagonistic Effect of L-threo-DOPS Antinociceptive Action on Naloxone (Morphine Antagonist)
(§4) Tests were conducted in the same way as the tail flick test method and the kaolin-induced writhing test method in Test Example 1 described above. In the tail flick test method, however, 1 mg/kg of naloxone was subcutaneously administered 40 minutes after administration of 400 mg/kg of L-threo-DOPS, and the latency was measured 60 minutes after the 400 mg/kg L-threo-DOPS administration. The obtained data are shown in terms of change in latency (Δ latency). In the kaolin-induced writhing test, 0.01 mg/kg of naloxone was subcutaneously administered 55 minutes after administration of 400 mg/kg of L-threo-DOPS, and kaolin was administered 5 minutes after the administration of naloxone.
(§5) The results obtained in the tests are all shown by means ±standard error. Statistically significant difference between the groups was determined by Student's t-test or Newman-Keuls test. When P<0.05, the difference was judged to be significant.
(§6) The symbol V denotes the group administered with vehicle only, and the symbol N.S. denotes that there is no significant difference as compared to the control group.

[5] = test system: mice; test: Effect of phentolamine on L-threo-DOPS antinociception, tail flick test; type: in vivo
Procedure: Effect of Phentolamine as an α-Adrenaline Receptor Blocker on the Antinociceptive Action of L-threo-DOPS
Phentolamine was administered intracerebral-ventricularly (i.c.v.) or intrathecaly (i.th.) in a dose of 0.1 to 1 μg/mouse, 40 minutes after L-threo-DOPS was administered in a dose of 400 mg/kg. Then, the effect of phentolamine against L-threo-DOPS-induced antinociceptive action was determined in the tail flick test.
Statistically significant difference between the groups was determined by Student's t-test or Newman-Keuls test. When P<0.05, the difference was judged to be significant.
The results in FIG. 5 indicates change in latency (Δ latency, second) 60 minutes after the L-threo-DOPS administration.

[6] = cited from earlier work
[7] = Acute toxicity (LD50) in mouse; conditions: in vivo
[8] = test system: mouse; test: Acute toxicity (LD50) in mouse; conditions: oral and intraperitoneal
[9] = test system: mice; test: Effect of naloxone on L-threo-DOPS antinociception, kaolin-induced writhing test; type: in vivo; conditions: L-threo-DOPS 400 mg/kg; naloxone 0.01 mg/kg s.c.; 60 minutes
Procedure: as §3, §4, §5, §6

[10] = test system: mice; test: Effect of benserazide on L-threo-DOPS antinociception, tail flick test; type: in vivo; conditions: L-threo-DOPS 400 mg/kg s.c., 60 minutes
Procedure: Effect of Benserazide (Peripheral Nerve Decarboxylase Inhibitor) on the Antinociceptive Action of L-threo-DOPS
Benserazide was administered subcutaneously in a dose of 1 mg/kg, 60 minutes before the subcutainious administration of L-threo-DOPS (400 mg/kg). Alternatively, benserazide was administered intracerebralventricularly at a dose of 25 μg/mouse, 30 minutes before L-threo-DOPS was subcutaneously administered in a dose of 400 mg/kg. The effect of benserazide on the L-threo-DOPS-induced antinociceptive action 60 minutes after the L-threo-DOPS administration was examined according to the tail flick test.
(§7) The results obtained in this test are all shown by means ±standard error. Statistically significant difference between the groups was determined by Student's t-test or Newman-Keuls test. When P<0.05, the difference was judged to be significant.
The results in FIG. 6 indicate change in latency (Δ latency, second) 60 minutes after the L-threo-DOPS administration. […] The symbol V denotes the group administered with vehicle only, and the symbol N.S. denotes that there is no significant difference as compared to the control group.

[11] = test system: mice; test: Tail flick test, oral L-threo-DOPS; type: in vivo
Procedure: Antinociceptive Action of L-threo-DOPS by Oral Administration
L-Threo-DOPS was orally administered to mice in doses of 200, 400 and 800 mg/kg, and was examined for the antinociceptive action according to the tail flick test method.
as §7
The results in FIG. 7 indicate, in the tail flick test, a relationship between the dose of L-threo-DOPS when orally administered and change in latency (Δ latency, second) 60 minutes after the L-threo-DOPS administration (n=6). *P<0.05, **P<0.01 (as compared to the control group).

[12] = 100 to 400 mg/kg s.c., 60 minutes after administration

N[C@H](C(=O)O)[C@H](O)c1ccc(O)c(O)c1 (relative stereo) [threo-DOPS, threo-3-(3,4-dihydroxyphenyl)serine]
analgesic effect in tail-flick test (summary) ([1]; s.c., mice): exhibits the analgesic effect dose-dependently | analgesic effect in kaolin-induced writhing test (summary) ([2]; s.c. and oral, mice): dose- dependently observed | analgesic effect in formalin test (summary) ([3]; s.c. and oral, mice): dose- dependently observed | type of analgesic activity [4]: non-narcotic | analgesic effect in presence of naloxone (summary) ([4]; morphine antagonist naloxone, tail flick and kaolin tests): not antagonized by morphine antagonist, naloxone | analgesic effect in presence of phentolamine (summary) ([5]; adrenaline blocker phentolamine administered in the brain): suppressed | fate after administration ([6]; known, U.S. Pat. No. 4,497,826): transported to a brain that is a site on which threo-DOPS acts, and then decarboxylated therein into a corresponding noradrenaline | transportation into brain in combination with decarboxylase inhibitor ([6]; with decarboxylase inhibitor, J. Pharm. Pharmacol., 1981, 33, 772-777): can be accelerated | LD50 ([7]; ip): ~10000 mg/kg | LD50 ([7]; po): ≥ 10000 mg/kg | toxicity [8]: extremely weak toxicity

N[C@H](C(=O)O)[C@H](O)c1ccc(O)c(O)c1 [L-threo-DOPS]
time after administration at which significantly prolonged tail flick latency was observed ([1]; 400 mg/kg s.c.): ≥ 40 min | time of maximum tail flick latency ([1]; 400 mg/kg s.c.): one | tail flick latency ([1]; 400 mg/kg s.c., 40 or more minutes after administration): significantly prolonged latency | tail flick latency, significance of effect ([1]; 400 mg/kg s.c., 2 hours after administration): no significant effect was observed | antinociceptive action, dose dependence (tail flick) [1, 12]: dose-dependent in the range of 100 to 400 mg/kg | antinociceptive action, kaolin-induced writhing ([2]; 200 mg/kg s.c.): significant antinociceptive action | count of kaolin-induced writhing response ([2]; 200 mg/kg s.c.): decreased to the half | decrease in writhing count ([2]; 200 mg/kg s.c., 30 minutes after administration): the observed decrease was insignificant | decrease in writhing count ([2]; 200 mg/kg s.c., 2 hours after administration): the observed decrease was insignificant | effect on writhing, dose dependence [2, 12]: dose-dependent in the range of 100 to 400 mg/kg | effect of increased dose in formalin test ([3]; 400 mg/kg s.c., not shown in graphs): no better effect was obtained | time required for nociceptive reaction (licking and biting), Phase I ([3]; 100 to 200 mg/kg s.c., 0-5 minutes after formalin): did not affect the time required for the nociceptive reaction | time required for nociceptive reaction (licking and biting), Phase II ([3]; 100 to 200 mg/kg s.c., 10-30 minutes after formalin): dose-dependently inhibited the reaction | antinociceptive action in presence of naloxone (tail flick) ([4]; L-threo-DOPS 400 mg/kg, naloxone 1 mg/kg s.c., 60 minutes): hardly affected by morphine antagonist, naloxone | type of analgesic activity [4]: non-narcotic analgesic activity; also recorded: non-opiate type antinociceptive action | antinociceptive action in presence of naloxone (kaolin-induced writhing) [9]: hardly affected by morphine antagonist, naloxone | inhibitory effect of phentolamine on L-threo-DOPS-induced prolongation of latency ([5]; L-threo-DOPS 400 mg/kg s.c., phentolamine 0.1 μg/mouse i.c.v.): also observed | prolongation of latency by L-threo-DOPS in presence of phentolamine ([5]; L-threo-DOPS 400 mg/kg s.c., phentolamine 1 μg/mouse i.c.v.): almost completely inhibited | antinociceptive action of L-threo-DOPS in presence of phentolamine, right graph of FIG. 5 ([5]; L-threo-DOPS 400 mg/kg s.c., phentolamine 1 μg/mouse, printed intracerebralventricularly (right graph)): partially but significantly inhibited | antinociceptive action in presence of benserazide ([10]; benserazide 25 μg/mouse i.c.v.): potently inhibited | antinociceptive action in presence of benserazide ([10]; benserazide 1 mg/kg s.c.): did not give any significant effect | effectiveness by oral administration ([11]; oral): also effective when orally administered | time after administration at which significant effect was observed ([11]; oral, 200, 400 and 800 mg/kg): ≥ 40 min | time of maximum antinociceptive effect ([11]; oral, 200, 400 and 800 mg/kg): 60 min | antinociceptive action, dose dependence (oral tail flick) ([11]; oral, 200 to 800 mg/kg): dose-dependently

Cc1ccc(N(CC2=NCCN2)c2cccc(O)c2)cc1 [phentolamine]
tail flick latency, phentolamine alone ([5]; phentolamine 1 μg/mouse i.c.v.): did not affect the latency
